Measurements taken from patent US4337199A, “Antibiotic β-lactam compounds, production thereof, and their use as antimicrobial agent” (Sanraku-Ocean Co., Ltd., priority 1978, dated 1982).
In brackets after ≈: the same amount, converted by molar mass.

Experiments:
Assay in all cases: minimum inhibitory concentration, agar dilution assay
Type in all cases: cell-based
Proteus vulgaris GN76 = details: GN76, agar dilution, 35° C., 20 hours, read-out: minimum inhibitory concentration
Procedure: (§1) The antibiotic activities shown in Tables I-1 to I-8 above were determined in the following manner.
(§2) The minimum inhibitory concentrations of the compounds of formula (I-a-1) or (I-b-1) in Tables I-1 to I-7 and the known compounds in Table I-8 on the various microorganisms shown in the above tables were measured by an agar dilution assay method using a brain heart infusion agar medium "Difco" (a product of Difco Laboratories Inc.)
(§3) A sample of the test compound was dissolved in sterile distilled water and diluted to prepare a two-fold dilution series of the compound solution. In a petri plate of 9 cm diameter, 1 ml of the compound solution was added to 9 ml of molten sterile heart infusion agar medium (Difco Laboratories Inc.) at about 60° C. to prepare the compound-containing agar plate. An overnight culture of each test organism indicated in the above table which was prepared by stationary cultivation in Trypto-Soy broth (Eiken Chemi. Co., Ltd.) at 35° C. for 18 to 20 hours, was diluted with the Trypto-Soy broth to give approximately 10^8 cells/ml and the diluted inoculum was inoculated onto the compound-containing agar plates. After cultivating the plates at 35° C. for 20 hours, the growth of the organism was observed. The minimum concentration of the compound at which no growth of the microorganism was noted was determined, and defined as the minimum inhibitory concentration of the test compound.

Proteus sp. P22 = details: agar dilution, 35° C., 20 hours; read-out: minimum inhibitory concentration
Procedure: as §1, §2, §3

[1] = system: Staphylococcus epidermidis; details: agar dilution, 35° C., 20 hours, read-out: minimum inhibitory concentration
Procedure: as §1, §2, §3

[2] = system: Pseudomonas aeruginosa NCTC10490; details: NCTC10490, agar dilution, 35° C., 20 hours, read-out: minimum inhibitory concentration
Procedure: as §1, §2, §3

Serratia marcescens S18 = details: S18, agar dilution, 35° C., 20 hours, read-out: minimum inhibitory concentration
Procedure: as §1, §2, §3

Sarcina lutea = details: Micrococcus luteus; agar dilution, 35° C., 20 hours; read-out: minimum inhibitory concentration
Procedure: as §1, §2, §3

[3] = system: Staphylococcus aureus Russell; details: agar dilution, 35° C., 20 hours, read-out: minimum inhibitory concentration
Procedure: as §1, §2, §3

[4] = system: Staphylococcus aureus Smith; details: agar dilution, 35° C., 20 hours, read-out: minimum inhibitory concentration
Procedure: as §1, §2, §3

[5] = system: Staphylococcus aureus FDA 209P; details: FDA209P, agar dilution, 35° C., 20 hours, read-out: minimum inhibitory concentration
Procedure: as §1, §2, §3

Proteus mirabilis P6 = details: P6, agar dilution, 35° C., 20 hours, read-out: minimum inhibitory concentration
Procedure: as §1, §2, §3

[6] = system: Pseudomonas aeruginosa IFO3445; details: IFO3445, agar dilution, 35° C., 20 hours, read-out: minimum inhibitory concentration
Procedure: as §1, §2, §3

Serratia marcescens T55 = details: T55, agar dilution, 35° C., 20 hours, read-out: minimum inhibitory concentration
Procedure: as §1, §2, §3

Providencia sp. P8 = details: SP.P8, agar dilution, 35° C., 20 hours, read-out: minimum inhibitory concentration
Procedure: as §1, §2, §3

Escherichia coli K-12 = details: K12, agar dilution, 35° C., 20 hours, read-out: minimum inhibitory concentration
Procedure: as §1, §2, §3

Proteus rettgeri P7 = details: Providencia rettgeri, P7; agar dilution, 35° C., 20 hours; read-out: minimum inhibitory concentration
Procedure: as §1, §2, §3

Enterobacter sp. E8 = details: SP.E8, agar dilution, 35° C., 20 hours, read-out: minimum inhibitory concentration
Procedure: as §1, §2, §3

Alcaligenes faecalis A 1 = details: A1, agar dilution, 35° C., 20 hours, read-out: minimum inhibitory concentration
Procedure: as §1, §2, §3

[7] = system: Bacillus subtilis ATCC 6633; details: ATCC6633, agar dilution, 35° C., 20 hours, read-out: minimum inhibitory concentration
Procedure: as §1, §2, §3

Enterobacter cloacae 45 = details: Enterobacter cloacae, 45; agar dilution, 35° C., 20 hours; read-out: minimum inhibitory concentration
Procedure: as §1, §2, §3

Escherichia coli RGN 823 = details: RGN823, agar dilution, 35° C., 20 hours, read-out: minimum inhibitory concentration
Procedure: as §1, §2, §3

[8] = system: Comamonas terrigena B-996; details: B996, agar dilution, 35° C., 20 hours, read-out: minimum inhibitory concentration
Procedure: as §1, §2, §3

[9] = system: Citrobacter freundii GN 346; details: GN346, agar dilution, 35° C., 20 hours, read-out: minimum inhibitory concentration
Procedure: as §1, §2, §3

[10] = system: Enterobacter aerogenes E19; details: Klebsiella aerogenes, E19; agar dilution, 35° C., 20 hours; read-out: minimum inhibitory concentration
Procedure: as §1, §2, §3

[11] = system: Klebsiella pneumoniae K-13; details: K13, agar dilution, 35° C., 20 hours, read-out: minimum inhibitory concentration
Procedure: as §1, §2, §3

MIC (Proteus vulgaris GN76) [mg/L] | MIC (Proteus sp. P22) [mg/L] | MIC [1] [mg/L] | MIC [2] [mg/L] | MIC (Serratia marcescens S18) [mg/L] | MIC (Sarcina lutea) [mg/L] | MIC [3] [mg/L] | MIC [4] [mg/L] | MIC [5] [mg/L] | MIC (Proteus mirabilis P6) [mg/L] | MIC [6] [mg/L] | MIC (Serratia marcescens T55) [mg/L] | MIC (Providencia sp. P8) [mg/L] | MIC (Escherichia coli K-12) [mg/L] | MIC (Proteus rettgeri P7) [mg/L] | MIC (Enterobacter sp. E8) [mg/L] | MIC (Alcaligenes faecalis A 1) [mg/L] | MIC [7] [mg/L] | MIC (Enterobacter cloacae 45) [mg/L] | MIC (Escherichia coli RGN 823) [mg/L] | Compound | also measured
12.5 (≈ 40.7 µM) | 12.5 (≈ 40.7 µM) | 0.39 (≈ 1.27 µM) | 12.5 (≈ 40.7 µM) | 50 (≈ 163 µM) | 0.2 (≈ 0.651 µM) | 0.39 (≈ 1.27 µM) | 0.39 (≈ 1.27 µM) | 0.2 (≈ 0.651 µM) | 12.5 (≈ 40.7 µM) | 12.5 (≈ 40.7 µM) | 100 (≈ 325 µM) | 0.78 (≈ 2.54 µM) | 1.56 (≈ 5.08 µM) | 12.5 (≈ 40.7 µM) | 6.25 (≈ 20.3 µM) | 1.56 (≈ 5.08 µM) | 0.39 (≈ 1.27 µM) | 50 (≈ 163 µM) | 3.13 (≈ 10.2 µM) | CC(O)[C@H]1C(=O)N2C(C(=O)O)=C(Sc3ncccn3)C[C@H]12 (stereo partly drawn) [Example 63, 5,6-trans-3-(2-Pyrimidinylthio)-6-(1-hydroxyethyl)-7-oxo-1-azabicyclo[3.2.0]hept-2-ene-2-carboxylic acid] | MIC [8]: 0.05 mg/L (≈ 0.163 µM); MIC [9]: 100 mg/L (≈ 325 µM); MIC [10]: 100 mg/L (≈ 325 µM); MIC [11]: 25 mg/L (≈ 81.3 µM)
6.25 (≈ 21.5 µM) | 12.5 (≈ 42.9 µM) | 0.024 (≈ 0.0824 µM) | 12.5 (≈ 42.9 µM) | 12.5 (≈ 42.9 µM) | < 0.012 | < 0.012 | 0.024 (≈ 0.0824 µM) | < 0.012 | 3.13 (≈ 10.7 µM) | 12.5 (≈ 42.9 µM) | 25 (≈ 85.8 µM) | 0.78 (≈ 2.68 µM) | 1.56 (≈ 5.35 µM) | 3.13 (≈ 10.7 µM) | 3.13 (≈ 10.7 µM) | 0.2 (≈ 0.687 µM) | < 0.012 | 25 (≈ 85.8 µM) | 3.13 (≈ 10.7 µM) | CCC1C(=O)N2C(C(=O)O)=C(Sc3ncccn3)CC12 (stereo not drawn) [Example 61, 3-(2-pyrimidinylthio)-6-ethyl-7-oxo-1-azabicyclo[3.2.0]hept-2-ene-2-carboxylic acid] | MIC [8]: < 0.012 mg/L; MIC [9]: 25 mg/L (≈ 85.8 µM); MIC [10]: 12.5 mg/L (≈ 42.9 µM); MIC [11]: 12.5 mg/L (≈ 42.9 µM)
> 100 | 100 (≈ 323 µM) | 0.05 (≈ 0.162 µM) | 50 (≈ 162 µM) | > 100 | 0.025 (≈ 0.0808 µM) | 0.025 (≈ 0.0808 µM) | 0.05 (≈ 0.162 µM) | 0.025 (≈ 0.0808 µM) | 100 (≈ 323 µM) | > 100 | > 100 | > 100 | > 100 | > 100 | > 100 | 6.25 (≈ 20.2 µM) | 0.2 (≈ 0.646 µM) | > 100 | > 100 | CC(C)C1C(=O)N2C(C(=O)O)=C(SC3CCCCC3)CC12 (stereo not drawn) | MIC [8]: 0.007 mg/L (≈ 0.0226 µM); MIC [9]: > 100 mg/L; MIC [10]: > 100 mg/L; MIC [11]: > 100 mg/L
25 (≈ 91.5 µM) | 100 (≈ 366 µM) | 0.2 (≈ 0.732 µM) | 25 (≈ 91.5 µM) | 12.5 (≈ 45.7 µM) | 0.013 (≈ 0.0476 µM) | 0.2 (≈ 0.732 µM) | 0.1 (≈ 0.366 µM) | 0.013 (≈ 0.0476 µM) | 3.13 (≈ 11.5 µM) | 25 (≈ 91.5 µM) | 12.5 (≈ 45.7 µM) | 0.78 (≈ 2.85 µM) | 0.2 (≈ 0.732 µM) | 6.25 (≈ 22.9 µM) | 0.2 (≈ 0.732 µM) | 0.39 (≈ 1.43 µM) | 0.013 (≈ 0.0476 µM) | 1.56 (≈ 5.71 µM) | 6.25 (≈ 22.9 µM) | CC(O)C1C(=O)N2C(C(=O)O)=C(SCCO)CC12 (stereo not drawn) [R1 --OH**, R21 --CH2 CH2 OH] | MIC [8]: 0.013 mg/L (≈ 0.0476 µM); MIC [9]: 0.78 mg/L (≈ 2.85 µM); MIC [10]: 0.39 mg/L (≈ 1.43 µM); MIC [11]: 25 mg/L (≈ 91.5 µM)
